Reference: patent publication US10351575B2, “Bicyclic urea, thiourea, guanidine and cyanoguanidine compounds useful for the treatment of pain” (Array BioPharma Inc., priority 2012, dated 2019)

Assays:
Assay in all cases: KinaseProfiler off-target kinase profiling
Format in all cases: biochemical
Conditions in all cases: 10 μM, ATP near Km
BrSK1 = BrSK1 (Homo sapiens (Human), UniProt Q8TDC3)
Outline: (§1)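 Each value is a two-replicate mean of kinase activity as percent of control. Compound concentration: 10 μM. ATP was adjusted to roughly the Km of the enzyme assayed.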

CK1_y = system: CK1_y
Outline: as §1

CK1delta = CK1delta (Homo sapiens (Human), UniProt P48730)
Outline: as §1

CK1gamma3 = CK1gamma3 (Homo sapiens (Human), UniProt Q9Y6M4)
Outline: as §1

DYRK2 = DYRK2 (Homo sapiens (Human), UniProt Q92630)
Outline: as §1

EGFR = EGFR (Homo sapiens (Human), UniProt P00533)
Outline: as §1

EphA4 = EphA4 (Homo sapiens (Human), UniProt P54764)
Outline: as §1

EphA7 = EphA7 (Homo sapiens (Human), UniProt Q15375)
Outline: as §1

EphB1 = EphB1 (Homo sapiens (Human), UniProt P54762)
Outline: as §1

FAK = FAK (Homo sapiens (Human), UniProt Q05397)
Outline: as §1

FGFR1 = FGFR1 (Homo sapiens (Human), UniProt P11362)
Outline: as §1

GSK3beta = GSK3beta (Homo sapiens (Human), UniProt P49841)
Outline: as §1

Hck = Hck (Homo sapiens (Human), UniProt P08631)
Outline: as §1

IRAK1 = IRAK1 (Homo sapiens (Human), UniProt P51617)
Outline: as §1

JNK2alpha2 = JNK2alpha2 (Homo sapiens (Human), UniProt P45984)
Outline: as §1

MARK2 = MARK2 (Homo sapiens (Human), UniProt Q7KZI7)
Outline: as §1

MKK7beta = MKK7beta (Homo sapiens (Human), UniProt O14733)
Outline: as §1

MRCKbeta = MRCKbeta (Homo sapiens (Human), UniProt Q9Y5S2)
Outline: as §1

MSSK1 = MSSK1 (Homo sapiens (Human), UniProt Q9UPE1)
Outline: as §1

MST1 = MST1 (Homo sapiens (Human), UniProt Q13043)
Outline: as §1

NEK2 = NEK2 (Homo sapiens (Human), UniProt P51955)
Outline: as §1

PKCalpha = PKCalpha (Homo sapiens (Human), UniProt P17252)
Outline: as §1

PKCbetaII = PKCbetaII (Homo sapiens (Human), UniProt P05771)
Outline: as §1

PKCeta = PKCeta (Homo sapiens (Human), UniProt P24723)
Outline: as §1

Pim-2 = Pim-2 (Homo sapiens (Human), UniProt Q9P1W9)
Outline: as §1

Ret = Ret (Homo sapiens (Human), UniProt P07949)
Outline: as §1

Rsk2 = Rsk2 (Homo sapiens (Human), UniProt P51812)
Outline: as §1

SGK1 = SGK1 (Homo sapiens (Human), UniProt O00141)
Outline: as §1

TSSK2 = TSSK2 (Homo sapiens (Human), UniProt Q96PF2)
Outline: as §1

TrkB = TrkB (Homo sapiens (Human), UniProt Q16620)
Outline: as §1

Txk = Txk (Homo sapiens (Human), UniProt P42681)
Outline: as §1

ULK2 = ULK2 (Homo sapiens (Human), UniProt Q8IYT8)
Outline: as §1

eEF-2K = eEF-2K (Homo sapiens (Human), UniProt O00418)
Outline: as §1

p38gamma = p38gamma (Homo sapiens (Human), UniProt P53778)
Outline: as §1

CK1delta, sequence (P48730 whole entry): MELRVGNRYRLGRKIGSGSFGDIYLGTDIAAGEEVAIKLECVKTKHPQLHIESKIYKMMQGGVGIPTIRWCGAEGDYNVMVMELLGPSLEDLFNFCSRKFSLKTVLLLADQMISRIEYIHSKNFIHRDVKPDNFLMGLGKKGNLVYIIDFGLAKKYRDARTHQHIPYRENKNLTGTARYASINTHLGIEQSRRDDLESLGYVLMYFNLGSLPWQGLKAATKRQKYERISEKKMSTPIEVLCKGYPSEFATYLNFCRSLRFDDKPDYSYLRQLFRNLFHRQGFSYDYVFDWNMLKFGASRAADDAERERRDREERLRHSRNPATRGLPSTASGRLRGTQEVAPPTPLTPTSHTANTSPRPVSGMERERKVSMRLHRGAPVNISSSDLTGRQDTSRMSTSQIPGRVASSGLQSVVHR
FGFR1, sequence (P11362 22-822): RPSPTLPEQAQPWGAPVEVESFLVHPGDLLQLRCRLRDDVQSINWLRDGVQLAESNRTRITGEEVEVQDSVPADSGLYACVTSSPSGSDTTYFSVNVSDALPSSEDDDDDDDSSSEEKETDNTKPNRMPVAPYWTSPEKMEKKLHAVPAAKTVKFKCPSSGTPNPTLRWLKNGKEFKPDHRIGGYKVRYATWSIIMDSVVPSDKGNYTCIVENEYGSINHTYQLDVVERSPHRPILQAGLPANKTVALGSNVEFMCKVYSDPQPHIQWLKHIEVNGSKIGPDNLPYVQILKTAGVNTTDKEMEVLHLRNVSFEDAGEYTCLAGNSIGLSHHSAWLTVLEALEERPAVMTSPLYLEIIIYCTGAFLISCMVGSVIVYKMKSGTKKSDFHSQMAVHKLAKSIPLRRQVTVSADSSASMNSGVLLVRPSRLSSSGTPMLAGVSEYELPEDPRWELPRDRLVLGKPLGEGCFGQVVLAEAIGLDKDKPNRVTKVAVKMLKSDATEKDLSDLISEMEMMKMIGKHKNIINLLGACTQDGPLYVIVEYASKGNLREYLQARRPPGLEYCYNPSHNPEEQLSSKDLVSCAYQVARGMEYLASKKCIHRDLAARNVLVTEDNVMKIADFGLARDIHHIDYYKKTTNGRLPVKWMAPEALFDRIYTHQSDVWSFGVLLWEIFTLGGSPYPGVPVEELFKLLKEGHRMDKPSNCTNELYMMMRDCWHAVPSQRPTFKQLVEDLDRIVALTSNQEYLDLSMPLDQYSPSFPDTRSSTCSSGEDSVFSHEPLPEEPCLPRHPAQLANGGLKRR
MST1, sequence (Q13043 whole entry): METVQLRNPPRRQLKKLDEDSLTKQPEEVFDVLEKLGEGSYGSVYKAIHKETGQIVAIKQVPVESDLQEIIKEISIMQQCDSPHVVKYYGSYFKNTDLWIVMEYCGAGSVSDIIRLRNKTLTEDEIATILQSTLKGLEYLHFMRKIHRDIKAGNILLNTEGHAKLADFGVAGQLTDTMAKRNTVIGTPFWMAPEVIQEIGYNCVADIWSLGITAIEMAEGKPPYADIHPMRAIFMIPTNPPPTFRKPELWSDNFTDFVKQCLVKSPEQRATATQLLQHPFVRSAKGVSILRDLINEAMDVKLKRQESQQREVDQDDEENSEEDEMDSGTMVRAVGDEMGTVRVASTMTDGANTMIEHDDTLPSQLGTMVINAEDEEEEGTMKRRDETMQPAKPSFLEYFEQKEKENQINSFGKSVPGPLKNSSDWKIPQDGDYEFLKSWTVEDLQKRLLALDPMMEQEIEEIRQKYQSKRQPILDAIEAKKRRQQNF
MRCKbeta, sequence (Q9Y5S2 whole entry): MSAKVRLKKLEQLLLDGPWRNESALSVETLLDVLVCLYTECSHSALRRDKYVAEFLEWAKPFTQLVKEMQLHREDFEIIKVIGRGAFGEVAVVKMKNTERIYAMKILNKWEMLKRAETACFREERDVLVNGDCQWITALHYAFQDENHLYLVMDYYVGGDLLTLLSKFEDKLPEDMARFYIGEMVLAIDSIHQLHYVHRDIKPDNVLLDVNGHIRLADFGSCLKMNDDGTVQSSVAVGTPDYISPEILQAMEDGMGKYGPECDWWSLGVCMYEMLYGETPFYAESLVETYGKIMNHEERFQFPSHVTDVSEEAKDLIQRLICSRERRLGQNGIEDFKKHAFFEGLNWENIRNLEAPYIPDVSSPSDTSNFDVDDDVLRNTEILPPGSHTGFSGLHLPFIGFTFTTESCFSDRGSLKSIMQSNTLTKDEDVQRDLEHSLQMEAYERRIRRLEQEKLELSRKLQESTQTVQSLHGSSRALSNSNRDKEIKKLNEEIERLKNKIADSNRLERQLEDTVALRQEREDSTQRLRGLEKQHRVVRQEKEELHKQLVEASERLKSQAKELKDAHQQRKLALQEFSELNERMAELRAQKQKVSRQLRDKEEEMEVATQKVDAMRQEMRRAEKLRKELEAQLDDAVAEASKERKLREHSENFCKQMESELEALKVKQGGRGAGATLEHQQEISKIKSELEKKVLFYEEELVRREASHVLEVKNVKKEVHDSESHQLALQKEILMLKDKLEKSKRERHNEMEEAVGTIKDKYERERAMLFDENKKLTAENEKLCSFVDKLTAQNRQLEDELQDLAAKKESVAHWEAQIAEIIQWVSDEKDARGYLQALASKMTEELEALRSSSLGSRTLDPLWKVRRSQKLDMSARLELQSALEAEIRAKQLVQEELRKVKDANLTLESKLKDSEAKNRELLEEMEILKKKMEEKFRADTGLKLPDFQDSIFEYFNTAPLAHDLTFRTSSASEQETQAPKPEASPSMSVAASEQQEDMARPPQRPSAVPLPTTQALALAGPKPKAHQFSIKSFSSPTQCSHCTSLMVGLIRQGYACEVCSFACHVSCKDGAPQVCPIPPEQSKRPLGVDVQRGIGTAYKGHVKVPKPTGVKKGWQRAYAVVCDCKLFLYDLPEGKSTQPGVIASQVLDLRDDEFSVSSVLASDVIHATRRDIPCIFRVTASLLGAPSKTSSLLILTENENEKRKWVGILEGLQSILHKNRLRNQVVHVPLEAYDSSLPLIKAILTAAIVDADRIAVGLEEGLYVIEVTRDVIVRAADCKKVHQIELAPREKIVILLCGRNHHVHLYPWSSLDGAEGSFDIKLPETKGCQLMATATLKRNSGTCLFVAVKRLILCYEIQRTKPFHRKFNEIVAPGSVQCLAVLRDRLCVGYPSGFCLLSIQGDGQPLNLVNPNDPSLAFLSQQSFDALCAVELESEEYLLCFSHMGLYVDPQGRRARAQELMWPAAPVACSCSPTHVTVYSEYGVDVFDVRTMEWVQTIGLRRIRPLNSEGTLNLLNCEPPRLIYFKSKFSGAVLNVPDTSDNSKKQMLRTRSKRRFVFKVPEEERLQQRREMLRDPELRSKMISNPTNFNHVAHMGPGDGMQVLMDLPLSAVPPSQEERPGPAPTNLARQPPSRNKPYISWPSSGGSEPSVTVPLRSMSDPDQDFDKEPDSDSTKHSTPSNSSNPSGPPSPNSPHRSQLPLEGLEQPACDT
NEK2, sequence (P51955 whole entry): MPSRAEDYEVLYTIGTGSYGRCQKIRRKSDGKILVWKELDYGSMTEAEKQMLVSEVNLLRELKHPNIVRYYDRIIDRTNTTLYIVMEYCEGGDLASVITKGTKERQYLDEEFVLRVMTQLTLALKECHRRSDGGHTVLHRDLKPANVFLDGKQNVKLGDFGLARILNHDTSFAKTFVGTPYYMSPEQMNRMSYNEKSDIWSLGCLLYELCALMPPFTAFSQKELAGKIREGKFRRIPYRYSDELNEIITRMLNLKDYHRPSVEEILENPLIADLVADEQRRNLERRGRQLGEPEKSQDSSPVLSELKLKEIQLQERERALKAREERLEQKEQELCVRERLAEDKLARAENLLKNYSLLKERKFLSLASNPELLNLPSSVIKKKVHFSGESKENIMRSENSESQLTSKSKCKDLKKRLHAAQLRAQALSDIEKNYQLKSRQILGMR
MSSK1, sequence (Q9UPE1 whole entry): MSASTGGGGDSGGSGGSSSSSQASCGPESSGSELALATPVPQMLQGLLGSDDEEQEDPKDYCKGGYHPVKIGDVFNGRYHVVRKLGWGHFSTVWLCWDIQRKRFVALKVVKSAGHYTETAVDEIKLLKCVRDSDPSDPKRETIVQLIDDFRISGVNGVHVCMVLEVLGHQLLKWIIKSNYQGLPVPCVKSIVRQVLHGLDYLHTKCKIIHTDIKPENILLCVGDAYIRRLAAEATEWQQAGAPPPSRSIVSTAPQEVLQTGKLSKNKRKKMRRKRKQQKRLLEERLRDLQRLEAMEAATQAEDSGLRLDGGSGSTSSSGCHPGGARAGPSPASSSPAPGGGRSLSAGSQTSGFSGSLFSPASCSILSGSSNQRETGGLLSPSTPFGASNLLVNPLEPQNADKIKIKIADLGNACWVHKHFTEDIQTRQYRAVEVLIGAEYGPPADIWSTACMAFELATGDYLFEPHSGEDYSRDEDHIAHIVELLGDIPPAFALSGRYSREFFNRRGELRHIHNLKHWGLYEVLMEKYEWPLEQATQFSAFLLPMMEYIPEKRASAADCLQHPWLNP
SGK1, sequence (O00141 whole entry): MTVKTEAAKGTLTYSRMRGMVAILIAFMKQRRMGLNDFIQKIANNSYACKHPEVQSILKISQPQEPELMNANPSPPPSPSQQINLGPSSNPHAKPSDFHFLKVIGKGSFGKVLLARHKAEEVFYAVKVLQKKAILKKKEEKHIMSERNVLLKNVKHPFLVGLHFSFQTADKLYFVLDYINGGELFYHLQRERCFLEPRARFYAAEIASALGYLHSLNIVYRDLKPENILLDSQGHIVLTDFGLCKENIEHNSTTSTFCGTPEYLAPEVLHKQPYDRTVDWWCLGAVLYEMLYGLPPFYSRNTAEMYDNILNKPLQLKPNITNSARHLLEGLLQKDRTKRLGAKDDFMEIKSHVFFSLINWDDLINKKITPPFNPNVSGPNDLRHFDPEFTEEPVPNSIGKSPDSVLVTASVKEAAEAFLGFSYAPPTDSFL

Question: `COCc1ccc2c(c1)C(NC(=O)Nc1c(C)c(-c3cnn(C)c3)nn1-c1ccccc1)COC2` (stereo not shown) [Example 32, 1-(1′,4-dimethyl-1-phenyl-1H,1′H-[3,4′-bipyrazol]-5-yl)-3-(6-(methoxymethyl)isochroman-4-yl)urea] was tested. Which “Avg. POC” value (BrSK1) did it give?
Answer: 114.5 POC

Question: What about the “Avg. POC” value (CK1_y) of the same compound?
Answer: 107.5 POC

Question: And the “Avg. POC” value (CK1delta)?
Answer: 135.5 POC

Question: And the “Avg. POC” value (CK1gamma3)?
Answer: 102 POC

Question: And the “Avg. POC” value (DYRK2)?
Answer: 97.5 POC

Question: What about the “Avg. POC” value (EGFR) of the same compound?
Answer: 102 POC

Question: What about the “Avg. POC” value (EphA4) of the same compound?
Answer: 103 POC

Question: What about the “Avg. POC” value (EphA7) of the same compound?
Answer: 100.5 POC

Question: What about the “Avg. POC” value (EphB1) of the same compound?
Answer: 145.5 POC

Question: What about the “Avg. POC” value (FAK) of the same compound?
Answer: 116.5 POC

Question: And the “Avg. POC” value (FGFR1)?
Answer: 104.5 POC

Question: And the “Avg. POC” value (GSK3beta)?
Answer: 84.5 POC

Question: And the “Avg. POC” value (Hck)?
Answer: 98 POC

Question: What about the “Avg. POC” value (IRAK1) of the same compound?
Answer: 113.5 POC

Question: What about the “Avg. POC” value (JNK2alpha2) of the same compound?
Answer: 102.5 POC

Question: What about the “Avg. POC” value (MARK2) of the same compound?
Answer: 107.5 POC

Question: What about the “Avg. POC” value (MKK7beta) of the same compound?
Answer: 138.5 POC

Question: What about the “Avg. POC” value (MRCKbeta) of the same compound?
Answer: 103 POC

Question: And the “Avg. POC” value (MSSK1)?
Answer: 105.5 POC

Question: What about the “Avg. POC” value (MST1) of the same compound?
Answer: 105.5 POC

Question: What about the “Avg. POC” value (NEK2) of the same compound?
Answer: 108 POC

Question: And the “Avg. POC” value (PKCalpha)?
Answer: 110 POC

Question: And the “Avg. POC” value (PKCbetaII)?
Answer: 100.5 POC

Question: What about the “Avg. POC” value (PKCeta) of the same compound?
Answer: 111.5 POC

Question: What about the “Avg. POC” value (Pim-2) of the same compound?
Answer: 116.5 POC

Question: And the “Avg. POC” value (Ret)?
Answer: 100.5 POC

Question: What about the “Avg. POC” value (Rsk2) of the same compound?
Answer: 92.5 POC

Question: And the “Avg. POC” value (SGK1)?
Answer: 119 POC

Question: And the “Avg. POC” value (TSSK2)?
Answer: 120.5 POC

Question: What about the “Avg. POC” value (TrkB) of the same compound?
Answer: −0.5 POC

Question: What about the “Avg. POC” value (Txk) of the same compound?
Answer: 127 POC

Question: And the “Avg. POC” value (ULK2)?
Answer: 103 POC

Question: What about the “Avg. POC” value (eEF-2K) of the same compound?
Answer: 115 POC

Question: And the “Avg. POC” value (p38gamma)?
Answer: 116.5 POC
